Measurements taken from patent EP2759295A1, “Foam cell specific Liver X Receptor (LXR) alpha agonist, SIRT1 inhibitors as well as p300 inhibitors as pharmaceutically active agents” (Max-Planck-Gesellschaft zur Förderung der Wissenschaften …, priority 2013, dated 2014).
Like-named read-outs stand apart in the source and are kept apart here.

Key:
[1] = target: T1, LXRα ligand binding domain (LBD) (Homo sapiens, UniProt Q13133); experiment: dual luciferase reporter gene assay with LXRα ligand binding domain in HEK-293 cells; assay type: cell-based; conditions: +DMSO
T1 construct: expressed in transfected cells; host or cells: HEK-293
T1 sequence (Q13133 164-447): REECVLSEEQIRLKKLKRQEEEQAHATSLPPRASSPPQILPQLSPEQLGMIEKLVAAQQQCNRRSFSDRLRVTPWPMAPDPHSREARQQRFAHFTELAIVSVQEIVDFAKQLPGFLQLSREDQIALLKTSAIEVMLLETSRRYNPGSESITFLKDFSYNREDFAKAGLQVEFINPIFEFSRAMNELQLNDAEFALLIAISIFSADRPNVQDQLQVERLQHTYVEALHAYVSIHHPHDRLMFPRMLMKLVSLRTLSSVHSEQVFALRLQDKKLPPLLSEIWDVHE
Experimental: The ligand binding domain (LBD) of LXRα (amino acids 164 to 447) or LXRβ (amino acids 154 to 461) was cloned into pBIND [Renilla/Amp] vector (Promega). Selection and amplification were performed in E-coli cells. Purification of the plasmids was performed with a plasmid purification kit (Qiagen). For transfection HEK-293 cells were plated in 96-well plates (TPP) at a density of 3.5 x 10^4 cells/well for 24 h. To investigate the ligand binding on LXRα ligand binding domain, 0.04 ng of renilla luciferase coding plasmide pGL4.75 (Promega), 0.04 ng of LXRα-LBD/GAL4-DBD plasmide and 80 ng of firefly luciferase coding plasmide pGL4.31 (Promega) were used in a total volume of 200 µL for each well. In LXRβ binding assay 40 ng of LXRβ-LBD/GAL4-DBD plasmide were applied in each transfection mix. Transfection was carried out for 4 h with Lipofectamine 2000 Transfection Reagent (Invitrogen) in Opti-MEM medium (Invitrogen). Ligand treatment was performed at different concentrations for 24 h. For lysis and detection dual-luciferase reporter gene assay system (Promega) and POLARstar Omega (BMG LABTECH) were used.

SIRT1 = target: T2, SIRT1 (Homo sapiens, UniProt Q96EB6); experiment: MALDI-TOF MS deacetylation assay; assay type: biochemical
T2 construct: purchased Biomol International, Inc. / Enzo Life Sciences / BlueSky BioTech
T2 sequence (Q96EB6 1-747): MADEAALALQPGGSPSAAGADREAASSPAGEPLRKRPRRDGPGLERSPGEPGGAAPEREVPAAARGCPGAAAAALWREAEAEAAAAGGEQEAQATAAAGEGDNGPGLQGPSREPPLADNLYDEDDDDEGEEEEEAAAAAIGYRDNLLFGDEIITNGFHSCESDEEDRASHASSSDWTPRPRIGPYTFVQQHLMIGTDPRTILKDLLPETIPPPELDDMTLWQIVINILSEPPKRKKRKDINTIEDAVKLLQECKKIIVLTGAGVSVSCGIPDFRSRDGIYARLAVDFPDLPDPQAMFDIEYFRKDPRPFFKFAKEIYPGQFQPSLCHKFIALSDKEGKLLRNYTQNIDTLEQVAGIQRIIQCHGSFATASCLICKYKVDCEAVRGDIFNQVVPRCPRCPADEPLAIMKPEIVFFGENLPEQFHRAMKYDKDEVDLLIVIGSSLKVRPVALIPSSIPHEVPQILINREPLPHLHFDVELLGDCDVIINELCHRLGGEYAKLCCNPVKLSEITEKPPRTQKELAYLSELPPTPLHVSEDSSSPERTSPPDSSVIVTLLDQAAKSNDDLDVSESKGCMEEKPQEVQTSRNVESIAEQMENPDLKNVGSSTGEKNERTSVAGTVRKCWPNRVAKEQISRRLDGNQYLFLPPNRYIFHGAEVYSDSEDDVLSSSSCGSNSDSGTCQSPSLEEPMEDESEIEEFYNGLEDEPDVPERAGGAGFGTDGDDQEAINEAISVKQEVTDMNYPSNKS
Experimental: The assay was performed in a 20 µL reaction. 0.5 µM acetylated peptide and 120 µM NAD^+ in reaction buffer (50 mM Tris-acetate (pH 8), 137 mM NaCl, 2.7 mM KCI, 1 mM MgCl2, 5 mM DTT, 0.05 % BSA) were mixed with compound or DMSO (VC). Reactions were initiated by adding 10 nM of SIRT1. After incubation for 30 min at 37°C, reactions were stopped by formic acid and nicotinamide (f.c. 1% and 5 mM, respectively). Reactions were performed with histone H4 peptide and 1% DMSO unless stated otherwise. […]
(§1) Acetylated and deacetylated peptides were mixed at different ratios in the respective buffer including stop solution and reaction components except the enzyme. Purification, preparation and MS detection were conducted in parallel to reaction samples. CCs were generated for IC50 value determination but not for the screening.
(§2) Peptides were purified by Oasis HLB µElution Plates using a vacuum manifold [S. Sauer et al. J Chromatogr A (2004), 1049, 9-16]. Plate columns were conditioned by 70% ACN and equilibrated with 0.1% TFA. Samples were loaded, desalted by 0.1 % TFA and H2O and eluted in 70% ACN.
(§3) For ultra thin layer (UTL), supernatant of saturated CHCA in ACN / H2O (2:1) and 0.1% TFA. was mixed with isopropanol (1:3) and was spread on a ground steel target. After solvent evaporated excess of CHCA was removed from target surface with a tissue [D. Fenyo et al. J Vis Exp (2007), 192]. The matrix used for sample preparation contained saturated CHCA in ACN / 0.1% TFA (1:2) or ACN / H2O (1:2) depending on peptide size [S. L. Cohen et al. Anal Chem (1996), 68, 31-37]. HLB eluted samples and matrix were mixed (1:4) and spotted on the UTL.
(§4) Samples were measured automatically (AutoXecute software, Bruker Daltonik GmbH) using an ultraflex II MALDI-TOF mass spectrometer (Bruker Daltonik GmbH) in positive ion reflector mode. Laser power and detector gain were adjusted prior to every automatic run, which were performed in random walk movement.
(§5) For assay optimization and IC50 determination, 1000 shots were accumulated in 100 satisfactory shot steps (fuzzy control). At least one peak within a defined mass range had to fulfill the following criteria for the spectra to be accumulated: Absolute (min.) intensity: 800; S/N: 15; peak width: 0.2.
(§6) A script (Bruker Daltonik GmbH) was employed to analyze peptide peaks in a batch process (flexAnalysis software, Version 3.0, Bruker Daltonik GmbH). Percentage of de-/acetylation were calculated using the sum of the first four monoisotopic peak intensities. CC was generated by plotting experimental vs. calculated peptide acetylation. Measured sample values were interpolated with CC to determine de-/acetylation values (GraphPad Prism). When no CC was created, peak intensity ratios were generated. Verified single NP screening hits had to pass a peak ratio of ≤ 0.1 (deac/ac).
(§7) As IC50 values were not gained at initial velocity conditions, values were corrected by a conversion factor according to Wu et al. (Table 5) [G. Wu et al. J Biomol Screen (2003), 8, 694-700].

p300 [2] = target: T3, p300 (Homo sapiens, UniProt Q09472); experiment: MALDI-TOF MS acetylation assay; assay type: biochemical
T3 construct: purchased Biomol International, Inc. / Enzo Life Sciences
Experimental: Reactions were started by adding 0.5 µM HAT peptide and 120 µM AcCoA and incubated for 60 min at 30°C. After incubation at 30°C for up to 60 min, reactions were stopped by formic acid (f.c. 2%). Reaction buffer consisted of 50 mM HEPES (pH 7.9), 0.1 mM EDTA and 50 µg/mL BSA.
as §1, §2, §3, §4, §5, §6, §7

THP-1 cells = experiment: TNFalpha ELISA in LPS-treated THP-1 cells; assay type: cell-based, human; conditions: 10 µM, LPS for 5 hours
Experimental: THP-1 cells were seeded in a 24-well plate (1.2 x 10^6 cells/well) in a volume of 0.4 mL. Cells were treated with 10 µM NP 9 or DMSO (VC). After 1 h, 10 ng/mL LPS (Sigma, cat.no. L5293) were added and incubated for another 5 h. Medium was separated from the cells by centrifugation and used for detection of TNFalpha release by a human TNF alpha ELISA Kit [V. M. Nayagam et al. J Biomol Screen (2006), 11, 959-967].

p300 [3] = target: T3, p300; experiment: radioactivity based assay (Reaction Biology Corp.); assay type: biochemical
From the text: IC50 for NP 9 was also validated by a radioactivity based assay, and performed by Reaction Biology Corp. (RBC).

p300 [4] = target: T3, p300; conditions: literature (Balasubramanyam et al.); cited from earlier work
[5] = Table 3, corrected values (see Table 5), read-out: IC50 values
[6] = corrected by conversion factor according to Wu et al., read-out: Corrected IC50
[7] = uncorrected, not at initial velocity conditions, read-out: Obtained IC50'

T3 sequence (Q09472 whole entry, species assumed): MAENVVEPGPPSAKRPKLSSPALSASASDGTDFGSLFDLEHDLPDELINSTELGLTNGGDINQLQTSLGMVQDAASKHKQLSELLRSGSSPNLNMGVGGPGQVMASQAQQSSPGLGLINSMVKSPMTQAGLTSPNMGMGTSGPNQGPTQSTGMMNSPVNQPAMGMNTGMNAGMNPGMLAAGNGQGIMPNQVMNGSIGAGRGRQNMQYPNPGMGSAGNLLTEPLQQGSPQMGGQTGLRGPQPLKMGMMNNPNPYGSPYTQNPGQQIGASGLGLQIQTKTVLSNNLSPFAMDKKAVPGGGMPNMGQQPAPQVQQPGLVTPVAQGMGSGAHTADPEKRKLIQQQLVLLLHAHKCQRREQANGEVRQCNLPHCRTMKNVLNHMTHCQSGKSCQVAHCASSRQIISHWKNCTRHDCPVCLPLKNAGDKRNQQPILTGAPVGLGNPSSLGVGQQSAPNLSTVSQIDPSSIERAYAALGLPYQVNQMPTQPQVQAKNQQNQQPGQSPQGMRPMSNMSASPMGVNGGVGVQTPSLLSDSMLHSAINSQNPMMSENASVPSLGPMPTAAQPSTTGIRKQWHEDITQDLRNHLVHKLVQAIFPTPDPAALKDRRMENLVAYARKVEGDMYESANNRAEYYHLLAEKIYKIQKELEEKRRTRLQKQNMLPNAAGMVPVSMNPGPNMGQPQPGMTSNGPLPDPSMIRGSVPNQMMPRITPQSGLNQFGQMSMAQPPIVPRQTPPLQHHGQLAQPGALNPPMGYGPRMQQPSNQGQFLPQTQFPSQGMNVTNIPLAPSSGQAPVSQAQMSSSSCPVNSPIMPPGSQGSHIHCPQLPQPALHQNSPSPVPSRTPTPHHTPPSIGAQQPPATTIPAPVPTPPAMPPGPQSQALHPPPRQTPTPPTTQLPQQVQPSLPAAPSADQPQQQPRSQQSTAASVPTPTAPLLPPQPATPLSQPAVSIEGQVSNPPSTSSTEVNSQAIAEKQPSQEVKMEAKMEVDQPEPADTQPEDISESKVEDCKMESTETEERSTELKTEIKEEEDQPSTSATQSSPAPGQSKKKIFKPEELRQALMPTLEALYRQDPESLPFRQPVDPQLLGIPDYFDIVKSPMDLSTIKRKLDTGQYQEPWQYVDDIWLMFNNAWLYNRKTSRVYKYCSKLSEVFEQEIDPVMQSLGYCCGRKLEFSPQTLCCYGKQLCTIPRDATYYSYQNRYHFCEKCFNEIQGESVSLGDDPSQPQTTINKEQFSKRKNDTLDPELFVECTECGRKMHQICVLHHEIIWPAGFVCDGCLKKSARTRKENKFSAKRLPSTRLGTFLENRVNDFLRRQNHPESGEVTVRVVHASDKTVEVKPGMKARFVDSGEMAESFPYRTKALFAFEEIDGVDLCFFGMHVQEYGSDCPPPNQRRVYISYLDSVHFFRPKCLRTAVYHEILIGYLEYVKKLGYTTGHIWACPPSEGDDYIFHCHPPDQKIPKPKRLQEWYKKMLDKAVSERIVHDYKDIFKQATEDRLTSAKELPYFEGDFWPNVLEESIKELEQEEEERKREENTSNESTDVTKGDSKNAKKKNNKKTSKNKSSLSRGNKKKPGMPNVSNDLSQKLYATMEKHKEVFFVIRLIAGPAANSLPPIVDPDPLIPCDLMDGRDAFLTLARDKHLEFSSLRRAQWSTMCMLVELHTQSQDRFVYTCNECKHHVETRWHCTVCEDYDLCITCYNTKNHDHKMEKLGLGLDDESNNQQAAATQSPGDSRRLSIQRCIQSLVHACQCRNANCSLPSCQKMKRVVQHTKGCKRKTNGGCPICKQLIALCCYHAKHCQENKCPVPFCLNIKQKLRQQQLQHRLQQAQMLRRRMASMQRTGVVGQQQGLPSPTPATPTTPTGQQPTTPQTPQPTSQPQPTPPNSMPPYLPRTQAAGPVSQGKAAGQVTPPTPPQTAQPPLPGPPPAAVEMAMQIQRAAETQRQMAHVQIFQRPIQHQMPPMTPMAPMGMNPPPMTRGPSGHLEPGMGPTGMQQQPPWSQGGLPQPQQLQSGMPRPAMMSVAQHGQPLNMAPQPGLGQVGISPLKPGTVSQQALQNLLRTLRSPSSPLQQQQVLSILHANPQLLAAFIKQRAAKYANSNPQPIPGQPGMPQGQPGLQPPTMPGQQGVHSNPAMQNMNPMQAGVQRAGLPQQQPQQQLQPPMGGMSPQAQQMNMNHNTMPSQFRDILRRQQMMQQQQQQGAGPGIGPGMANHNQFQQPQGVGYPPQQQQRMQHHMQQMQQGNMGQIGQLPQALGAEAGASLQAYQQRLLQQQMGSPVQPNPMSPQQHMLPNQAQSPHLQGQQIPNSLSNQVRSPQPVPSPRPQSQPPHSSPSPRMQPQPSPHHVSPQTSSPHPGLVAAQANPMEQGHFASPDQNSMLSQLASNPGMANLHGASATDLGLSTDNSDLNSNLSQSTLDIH

IC50 (SIRT1; [5]) [µM]	IC50 (SIRT1; [6]) [µM]	IC50 (SIRT1; [7]) [µM]	Compound	also measured
–	–	–	CC(C)CC[C@@H](O)[C@@H](C)[C@H]1CC[C@H]2[C@@H]3CC=C4C[C@@H](O)CC[C@]4(C)[C@H]3CC[C@]12C [22R, 22(R)-hydroxycholesterol]	EC50 ([1]; LXRα reporter gene activation): 13.3 µM; Efficacy ([1]; reporter gene transcription vs. T09): 4%
28 ± 9	28 ± 9	39 ± 13	COc1c(-c2c(O)cc(O)c3c(=O)cc(-c4ccc(O)cc4)oc23)c(O)cc2oc(-c3ccc(O)cc3)cc(=O)c12 [NP 2, 5',7,7'-trihydroxy-2,2'-bis(4-hydroxyphenyl)-5-methoxy-6,8'-bi(4H-chromene)-4,4'-dione]	–
36 ± 6	36 ± 6	50 ± 8	O=c1cc(-c2ccc(O)c(-c3c(O)cc(O)c4c(=O)cc(-c5ccc(O)cc5)oc34)c2)oc2cc(O)cc(O)c12 [NP 3, 8-(5-(5,7-dihydroxy-4-oxo-4H-chromen-2-yl)-2-hydroxyphenyl)-5,7-dihydroxy-2-(4-hydroxyphenyl)-4H-chromen-4-one]	–
46 ± 4	46 ± 4	63 ± 5	O=C1CC(c2ccccc2)Oc2c(Cc3cccc(O)c3O)c(O)c(Cc3cccc(O)c3O)c(O)c21 (stereo not shown) [NP 4, 6,8-bis(2,3-dihydroxybenzyl)-5,7-dihydroxy-2-phenylchroman-4-one]	–
49 ± 3	49 ± 3	68 ± 4	COC1C(OC(N)=O)C(O)C(Oc2ccc(-c3coc4cc(O)cc(O)c4c3=O)cc2)OC1(C)C (stereo not shown) [NP 5, 6-(4-(5,7-dihydroxy-4-oxo-4H-chromen-3-yl)phenoxy)-5-hydroxy-3-methoxy-2,2-dimethyl-tetrahydro-2H-pyran-4-yl carbamate]	–
–	–	–	CC(C)=CCc1c(O)cc(O)c2c(=O)c(O)c(-c3ccc(O)c(O)c3)oc12 [NP 9, 2-(3,4-dihydroxyphenyl)-3,5,7-trihydroxy-8-(3-methylbut-2-enyl)-4H-chromen-4-one]	IC50 (p300 [2]; MALDI MS assay, read-out: IC50 value): 1.71 µM; IC50 (p300 [2]; [6]): 1.71 ± 0.07 µM; times stronger than anacardic acid (p300 [2]; p300 IC50 comparison): about 4 times; times stronger than garcinol (p300 [2]; p300 IC50 comparison): about 3.5 times; IC50 (p300 [2]; [7]): 2.35 ± 0.09 µM; levels of TNFα secreted (THP-1 cells): significant anti-inflammatory effects by reducing the levels of TNFα; IC50 (p300 [3]): 2.1 µM
–	–	–	CCCCCCCCCCCCCCCc1cccc(O)c1C(=O)O [anacardic acid]	IC50 (p300 [4]): 8.5 µM
